{"source": "patent US9018135B2", "about": "“Pesticidal compositions” (Syngenta Participations AG, priority 2010, dated 2015)", "key": {"[1]": {"test_system": "Rhopalosiphum padi (cereal aphid)", "assay": "Activity against Rhopalosiphum padi (cereal aphid) on sprayed wheat plants, % mortality (Abbott)", "description": "Activity Against Rhopalosiphum padi (Cereal Aphid) and Crop Safety\nThe experiment was divided into two parts, one half of the plants was used for the aphid bioassay the other half was not infested with aphids and kept for plant growth evaluation. One replicate consisted of 4 wheat plants per pot. 5 replicates were infested with a mixed population of cereal aphids 6 days after seeding. 9 days after seeding all wheat plants (10 replicates) were sprayed with respective test solutions. Test solutions contained the formulated test compound (25 ppm), the adjuvant Mero (0.1% v/v), and the plant growth regulator (PGR) CCC (chlormequat-chloride, Cyclocel®) or trinexapac ethyl (Moddus®). 6 and 17d after application aphid mortality and phytotoxicity were evaluated. Efficacy was calculated with the aid of Abbott's formula. Assessment on phytotoxicity was done by counting the number of leaves bent down due to necrosis per pot. Additionally the average plant height per replicate was measured."}, "[2]": {"test_system": "Nilaparvata lugens (brown plant hopper, BPH)", "assay": "Activity against Nilaparvata lugens (brown plant hopper, BPH) on sprayed rice plants, % mortality (Abbott)", "type": "in vivo", "details": "168 h", "experimental": "Eight replicates (pots with rice plants) were sprayed with respective test solutions. Test solutions contained the formulated test compound and the PGR Moddus® at different ratios. 4 pots were infested with plant hopper nymphs right after application. 7d after application BPH mortality and phytotoxicity were evaluated."}}, "note": "Like-named read-outs stand apart in the source and are kept apart here.", "data": [{"compound": "CCOC(=O)OC1=C(c2cc(C)ccc2C)C(=O)N(C)C12CCN(OC)CC2", "values": [{"measurement": "melting point", "result": "96 to 110", "unit": "°C"}]}, {"compound": "CCOC(=O)OC1=C(c2cc(C)c(C)cc2Br)C(=O)N(C)C12CCN(OC)CC2", "values": [{"measurement": "melting point", "result": "158 to 159", "unit": "°C"}]}, {"compound": "CCOC(=O)OC1=C(c2cc(C)c(C)cc2Cl)C(=O)N(C)C12CCN(OC)CC2", "values": [{"measurement": "melting point", "result": "149 to 150", "unit": "°C"}]}, {"compound": "CCOC(=O)OC1=C(c2c(C)cc(C)cc2C)C(=O)N(CC)C12CCN(OC)CC2", "values": [{"measurement": "melting point", "result": "101 to 103", "unit": "°C"}]}, {"compound": "CCOC(=O)OC1=C(c2c(C)cc(Cl)cc2C)C(=O)N(OC)C12CCN(OC)CC2", "values": [{"measurement": "melting point", "result": "122 to 125", "unit": "°C"}]}, {"compound": "COCON1C(=O)C(c2cc(C)ccc2C)=C(OC)C12CCN(OC)CC2", "values": [{"measurement": "melting point", "result": "91 to 93", "unit": "°C"}]}, {"compound": "COCON1C(=O)C(c2cc(C)ccc2C)=C(OC(=O)CC(C)(C)C)C12CCN(OC)CC2", "values": [{"measurement": "melting point", "result": "93 to 95", "unit": "°C"}]}, {"compound": "CCOC(=O)OC1=C(c2c(F)ccc(C)c2Cl)C(=O)N(OCOC)C12CCN(OC)CC2", "values": [{"measurement": "melting point", "result": "116 to 119", "unit": "°C"}]}, {"compound": "CON1CCC2(CC1)C(O)=C(c1cc(C)ccc1C)C(=O)N2C", "values": [{"measurement": "melting point", "result": "121 to 123", "unit": "°C"}]}, {"compound": "CCN1C(=O)C(c2c(C)cc(C)cc2C)=C(O)C12CCN(OC)CC2", "values": [{"measurement": "melting point", "result": "218 to 221", "unit": "°C"}]}, {"compound": "CON1CCC2(CC1)C(O)=C(c1cc(C)c(C)cc1Br)C(=O)N2C", "values": [{"measurement": "melting point", "result": "191 to 193", "unit": "°C"}]}, {"compound": "CON1CCC2(CC1)C(O)=C(c1cc(C)c(C)cc1C)C(=O)N2C", "values": [{"measurement": "melting point", "result": "183 to 186", "unit": "°C"}]}, {"compound": "CON1CCC2(CC1)C(O)=C(c1cc(C)c(C)cc1Cl)C(=O)N2C", "values": [{"measurement": "melting point", "result": "191 to 192", "unit": "°C"}]}, {"compound": "CON1CCC2(CC1)C(O)=C(c1cc(Br)c(C)cc1C)C(=O)N2C", "values": [{"measurement": "melting point", "result": "182 to 183", "unit": "°C"}]}, {"compound": "CON1CCC2(CC1)C(O)=C(c1c(C)cc(C)cc1C)C(=O)N2CC1CC1", "values": [{"measurement": "melting point", "result": "223 to 225", "unit": "°C"}]}, {"compound": "COCCON1C(=O)C(c2c(C)cc(Cl)cc2C)=C(O)C12CCN(OC)CC2", "values": [{"measurement": "melting point", "result": "161 to 164", "unit": "°C"}]}, {"compound": "CON1CCC2(CC1)C(O)=C(c1c(C)cc(Cl)cc1C)C(=O)N2OC", "values": [{"measurement": "melting point", "result": "88 to 92", "unit": "°C"}]}, {"compound": "COCON1C(=O)C(c2c(C)cc(Cl)cc2C)=C(O)C12CCN(OC)CC2", "values": [{"measurement": "melting point", "result": "176 to 178", "unit": "°C"}]}, {"compound": "CON1CCC2(CC1)C(O)=C(c1c(C)cc(Cl)cc1C)C(=O)N2OC1CCCO1", "note": "(centres unmarked)", "values": [{"measurement": "melting point", "result": "137 to 139", "unit": "°C"}]}, {"compound": "COCON1C(=O)C(c2c(C)cc(-c3ccc(Cl)cc3)cc2C)=C(O)C12CCN(OC)CC2", "values": [{"measurement": "melting point", "result": "128 °C (dec.)"}]}, {"compound": "CON1CCC2(CC1)C(O)=C(c1c(C)cc(C)cc1C)C(=O)N2OCCOC1CCCCO1", "note": "(centres unmarked)", "values": [{"measurement": "melting point", "result": "135 to 137", "unit": "°C"}]}, {"compound": "COCON1C(=O)C(c2c(F)ccc(C)c2Cl)=C(O)C12CCN(OC)CC2", "values": [{"measurement": "melting point", "result": "155 to 158", "unit": "°C"}]}, {"compound": "COCCON1C(=O)C(c2cc(Br)c(C)cc2C)=C(O)C12CCN(OC)CC2", "values": [{"measurement": "melting point", "result": "63 to 64", "unit": "°C"}]}, {"compound": "CON1CCC2(CC1)C(O)=C(c1cc(Br)c(C)cc1C)C(=O)N2OC", "values": [{"measurement": "melting point", "result": "86 to 87", "unit": "°C"}]}, {"compound": "COCCON1C(=O)C(c2cc(Br)c(F)cc2C)=C(O)C12CCN(OC)CC2", "values": [{"measurement": "melting point", "result": "71 to 74", "unit": "°C"}]}, {"compound": "COCON1C(=O)C(c2cc(Br)c(F)cc2C)=C(O)C12CCN(OC)CC2", "values": [{"measurement": "melting point", "result": "64 to 67", "unit": "°C"}]}, {"compound": "CON1CCC2(CC1)C(O)=C(c1c(C)cc(C)cc1C)C(=O)N2OCC1CCCCC1", "values": [{"measurement": "melting point", "result": "169 to 172", "unit": "°C"}]}, {"compound": "CCOC(=O)OC1=C(c2c(C)cc(C)cc2C)C(=O)N(C)C12CCN(OC)CC2", "note": "[P1.2, Carbonic acid ethyl ester 8-methoxy-1-methyl-2-oxo-3-(2,4,6-trimethyl-phenyl)-1,8-diaza-spiro[4.5]dec-3-en-4-yl ester]", "values": [{"measurement": "Efficacy (% mortality) against cereal aphids (Rhopalosiphum padi), 6 DAA", "setting": "[1]; test compound 25 ppm + Mero 0.1% v/v, tank mix with PGR Cycocel, ratio AI:PGR 1:20, 6 DAA", "result": 97, "unit": "%"}, {"measurement": "Efficacy (% mortality) against cereal aphids (Rhopalosiphum padi), 17 DAA", "setting": "[1]; test compound 25 ppm + Mero 0.1% v/v, tank mix with PGR Cycocel, ratio AI:PGR 1:20, 17 DAA", "result": 93, "unit": "%"}, {"measurement": "Efficacy (% mortality) against cereal aphids (Rhopalosiphum padi), 6 DAA", "setting": "[1]; test compound 25 ppm + Mero 0.1% v/v, tank mix with PGR Moddus, ratio AI:PGR 1:10, 6 DAA", "result": 94, "unit": "%"}, {"measurement": "Efficacy (% mortality) against cereal aphids (Rhopalosiphum padi), 17 DAA", "setting": "[1]; test compound 25 ppm + Mero 0.1% v/v, tank mix with PGR Moddus, ratio AI:PGR 1:10, 17 DAA", "result": 90, "unit": "%"}, {"measurement": "Efficacy (% mortality) against cereal aphids (Rhopalosiphum padi), 6 DAA", "setting": "[1]; test compound 25 ppm + adjuvant Mero 0.1% v/v, no PGR, 6 days after application, Abbott", "result": 97, "unit": "%"}, {"measurement": "Efficacy (% mortality) against cereal aphids (Rhopalosiphum padi), 17 DAA", "setting": "[1]; test compound 25 ppm + adjuvant Mero 0.1% v/v, no PGR, 17 days after application, Abbott", "result": 70, "unit": "%"}, {"measurement": "mortality at 12.5 ppm", "setting": "[2]; 12.5 ppm AI with Moddus, ratio AI:PGR 0.9:1, 7 d after application, read-out: Efficacy (% mortality) against brown plant hopper (Nilaparvata lugens)", "result": 5, "unit": "%"}, {"measurement": "mortality at 12.5 ppm", "setting": "[2]; 12.5 ppm AI, no PGR, 7 d after application, read-out: Efficacy (% mortality) against brown plant hopper (Nilaparvata lugens)", "result": 65, "unit": "%"}, {"measurement": "mortality at 25 ppm", "setting": "[2]; 25 ppm AI with Moddus, ratio AI:PGR 1.9:1, 7 d after application, read-out: Efficacy (% mortality) against brown plant hopper (Nilaparvata lugens)", "result": 10, "unit": "%"}, {"measurement": "mortality at 25 ppm", "setting": "[2]; 25 ppm AI, no PGR, 7 d after application, read-out: Efficacy (% mortality) against brown plant hopper (Nilaparvata lugens)", "result": 37, "unit": "%"}, {"measurement": "mortality at 50 ppm", "setting": "[2]; 50 ppm AI with Moddus, ratio AI:PGR 1.25:1, 7 d after application, read-out: Efficacy (% mortality) against brown plant hopper (Nilaparvata lugens)", "result": 33, "unit": "%"}, {"measurement": "mortality at 50 ppm", "setting": "[2]; 50 ppm AI, no PGR, 7 d after application, read-out: Efficacy (% mortality) against brown plant hopper (Nilaparvata lugens)", "result": 62, "unit": "%"}, {"measurement": "mortality at 100 ppm", "setting": "[2]; 100 ppm AI with Moddus, ratio AI:PGR 7.5:1, 7 d after application, read-out: Efficacy (% mortality) against brown plant hopper (Nilaparvata lugens)", "result": 77, "unit": "%"}, {"measurement": "mortality at 100 ppm", "setting": "[2]; 100 ppm AI, no PGR, 7 d after application, read-out: Efficacy (% mortality) against brown plant hopper (Nilaparvata lugens)", "result": 80, "unit": "%"}, {"measurement": "mortality at 200 ppm", "setting": "[2]; 200 ppm AI with Moddus, ratio AI:PGR 15:1, 7 d after application, read-out: Efficacy (% mortality) against brown plant hopper (Nilaparvata lugens)", "result": 87, "unit": "%"}, {"measurement": "mortality at 200 ppm", "setting": "[2]; 200 ppm AI, no PGR, 7 d after application, Abbott, read-out: Efficacy (% mortality) against brown plant hopper (Nilaparvata lugens)", "result": 90, "unit": "%"}]}, {"compound": "CCOC(=O)OC1=C(c2c(C)cc(Cl)cc2C)C(=O)N(C)C12CCN(OC)CC2", "note": "[P1.29]", "values": [{"measurement": "mortality at 12.5 ppm", "setting": "[2]; read-out: Efficacy (% mortality) against brown plant hopper (Nilaparvata lugens), 12.5 ppm AI with Moddus, ratio AI:PGR 0.9:1, 7 d after application", "result": 80, "unit": "%"}, {"measurement": "mortality at 12.5 ppm", "setting": "[2]; read-out: Efficacy (% mortality) against brown plant hopper (Nilaparvata lugens), 12.5 ppm AI, no PGR, 7 d after application", "result": 98, "unit": "%"}, {"measurement": "mortality at 25 ppm", "setting": "[2]; read-out: Efficacy (% mortality) against brown plant hopper (Nilaparvata lugens), 25 ppm AI with Moddus, ratio AI:PGR 1.9:1, 7 d after application", "result": 97, "unit": "%"}, {"measurement": "mortality at 25 ppm", "setting": "[2]; read-out: Efficacy (% mortality) against brown plant hopper (Nilaparvata lugens), 25 ppm AI, no PGR, 7 d after application", "result": 98, "unit": "%"}, {"measurement": "mortality at 50 ppm", "setting": "[2]; read-out: Efficacy (% mortality) against brown plant hopper (Nilaparvata lugens), 50 ppm AI with Moddus, ratio AI:PGR 1.25:1, 7 d after application", "result": 98, "unit": "%"}, {"measurement": "mortality at 50 ppm", "setting": "[2]; read-out: Efficacy (% mortality) against brown plant hopper (Nilaparvata lugens), 50 ppm AI, no PGR, 7 d after application", "result": 100, "unit": "%"}, {"measurement": "mortality at 100 ppm", "setting": "[2]; read-out: Efficacy (% mortality) against brown plant hopper (Nilaparvata lugens), 100 ppm AI with Moddus, ratio AI:PGR 7.5:1, 7 d after application", "result": 100, "unit": "%"}, {"measurement": "mortality at 100 ppm", "setting": "[2]; read-out: Efficacy (% mortality) against brown plant hopper (Nilaparvata lugens), 100 ppm AI, no PGR, 7 d after application", "result": 100, "unit": "%"}, {"measurement": "mortality at 200 ppm", "setting": "[2]; read-out: Efficacy (% mortality) against brown plant hopper (Nilaparvata lugens), 200 ppm AI with Moddus, ratio AI:PGR 15:1, 7 d after application", "result": 100, "unit": "%"}, {"measurement": "mortality at 200 ppm", "setting": "[2]; read-out: Efficacy (% mortality) against brown plant hopper (Nilaparvata lugens), 200 ppm AI, no PGR, 7 d after application, Abbott", "result": 100, "unit": "%"}]}]}
